Test results from patent publication US20260262643A1, “HERBICIDAL BENZOXAZINES” (FMC CORPORATION, priority 2022, published 2026).

Experiments:
soybean [1] = test: Test A postemergence; assay type: in vivo, Glycine max; conditions: postemergence, 10 days; for Soybean plant response rating: 125 g ai/ha, 0 to 100 scale, 0 no effect, 100 complete control; for Plant response rating, Soybean: 500 g ai/ha, visual injury, 0 to 100 scale (0 no effect, 100 complete control)
Procedure, shortened: (§1)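 Greenhouse pot test, 10 days. Compound (non-phytotoxic solvent, surfactant) sprayed on soil at seeding or on seedlings at one- to two-leaf stage. Visual injury rated 0–100 against untreated plants.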

pigweed, palmer [2] = test: Test A postemergence; assay type: in vivo, Amaranthus palmeri; conditions: postemergence, 10 days; for Pigweed, Palmer plant response rating: 125 g ai/ha, 0 to 100 scale, 0 no effect, 100 complete control; for Plant response rating, Pigweed, Palmer: 500 g ai/ha, visual injury, 0 to 100 scale (0 no effect, 100 complete control)
Procedure, shortened: as §1

ducksalad = test: Test B flooded paddy test; assay type: in vivo, Heteranthera limosa; conditions: 250 g ai/ha, Flood, 13 days, 0 to 100 scale (0 no effect, 100 complete control)
Procedure, shortened: (§2)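 Plants at the 2-leaf stage were flooded to 3 cm above the soil, and test compounds were applied directly into the paddy water, with that depth held throughout. After 13 days in a greenhouse, injury was rated visually against untreated controls on a 0–100 scale (100 = complete control).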

goosegrass [3] = test: Test A preemergence; assay type: in vivo, Eleusine indica
Procedure, shortened: as §1

foxtail, giant [4] = test: Test A preemergence; assay type: in vivo, Setaria faberi
Procedure, shortened: as §1

galium = test: Test A postemergence; assay type: in vivo, Galium aparine; conditions: postemergence, 10 days; for Galium plant response rating: 125 g ai/ha, 0 to 100 scale, 0 no effect, 100 complete control; for Plant response rating, Galium: 500 g ai/ha, visual injury, 0 to 100 scale (0 no effect, 100 complete control)
Procedure, shortened: as §1

goosegrass [5] = test: Test A postemergence; assay type: in vivo, Eleusine indica; conditions: postemergence, 10 days; for Goosegrass plant response rating: 125 g ai/ha, 0 to 100 scale, 0 no effect, 100 complete control; for Plant response rating, Goosegrass: 500 g ai/ha, visual injury, 0 to 100 scale (0 no effect, 100 complete control)
Procedure, shortened: as §1

rice = test: Test B flooded paddy test; assay type: in vivo, Oryza sativa; conditions: 250 g ai/ha, Flood, 13 days, 0 to 100 scale (0 no effect, 100 complete control)
Procedure, shortened: as §2

corn [6] = test: Test A postemergence; assay type: in vivo, Zea mays; conditions: postemergence, 10 days; for Corn plant response rating: 125 g ai/ha, 0 to 100 scale, 0 no effect, 100 complete control; for Plant response rating, Corn: 500 g ai/ha, visual injury, 0 to 100 scale (0 no effect, 100 complete control)
Procedure, shortened: as §1

blackgrass [7] = test: Test A postemergence; assay type: in vivo, Alopecurus myosuroides; conditions: postemergence, 10 days; for Blackgrass plant response rating: 125 g ai/ha, 0 to 100 scale, 0 no effect, 100 complete control; for Plant response rating, Blackgrass: 500 g ai/ha, visual injury, 0 to 100 scale (0 no effect, 100 complete control)
Procedure, shortened: as §1

kochia [8] = test: Test A preemergence; assay type: in vivo, Bassia scoparia
Procedure, shortened: as §1

sedge, umbrella = test: Test B flooded paddy test; assay type: in vivo, Cyperus difformis; conditions: 250 g ai/ha, Flood, 13 days, 0 to 100 scale (0 no effect, 100 complete control)
Procedure, shortened: as §2

horseweed = test: Test A postemergence; assay type: in vivo, Erigeron canadensis; conditions: postemergence, 10 days; for Horseweed plant response rating: 125 g ai/ha, 0 to 100 scale, 0 no effect, 100 complete control; for Plant response rating, Horseweed: 500 g ai/ha, visual injury, 0 to 100 scale (0 no effect, 100 complete control)
Procedure, shortened: as §1

blackgrass [9] = test: Test A preemergence; assay type: in vivo, Alopecurus myosuroides
Procedure, shortened: as §1

wheat [10] = test: Test A preemergence; assay type: in vivo, Triticum aestivum
Procedure, shortened: as §1

corn [11] = test: Test A preemergence; assay type: in vivo, Zea mays
Procedure, shortened: as §1

ryegrass, Italian [12] = test: Test A postemergence; assay type: in vivo, Lolium multiflorum; conditions: postemergence, 10 days; for Ryegrass, Italian plant response rating: 125 g ai/ha, 0 to 100 scale, 0 no effect, 100 complete control; for Plant response rating, Ryegrass, Italian: 500 g ai/ha, visual injury, 0 to 100 scale (0 no effect, 100 complete control)
Procedure, shortened: as §1

wheat [13] = test: Test A postemergence; assay type: in vivo, Triticum aestivum; conditions: postemergence, 10 days; for Wheat plant response rating: 125 g ai/ha, 0 to 100 scale, 0 no effect, 100 complete control; for Plant response rating, Wheat: 500 g ai/ha, visual injury, 0 to 100 scale (0 no effect, 100 complete control)
Procedure, shortened: as §1

ragweed [14] = test: Test A postemergence; assay type: in vivo, Ambrosia artemisiifolia; conditions: postemergence, 10 days; for Ragweed plant response rating: 125 g ai/ha, 0 to 100 scale, 0 no effect, 100 complete control; for Plant response rating, Ragweed: 500 g ai/ha, visual injury, 0 to 100 scale (0 no effect, 100 complete control)
Procedure, shortened: as §1

ryegrass, Italian [15] = test: Test A preemergence; assay type: in vivo, Lolium multiflorum
Procedure, shortened: as §1

pigweed, palmer [16] = test: Test A preemergence; assay type: in vivo, Amaranthus palmeri
Procedure, shortened: as §1

ragweed [17] = test: Test A preemergence; assay type: in vivo, Ambrosia artemisiifolia
Procedure, shortened: as §1

oat, wild [18] = test: Test A preemergence; assay type: in vivo, Avena fatua
Procedure, shortened: as §1

oat, wild [19] = test: Test A postemergence; assay type: in vivo, Avena fatua; conditions: postemergence, 10 days; for Oat, Wild plant response rating: 125 g ai/ha, 0 to 100 scale, 0 no effect, 100 complete control; for Plant response rating, Oat, Wild: 500 g ai/ha, visual injury, 0 to 100 scale (0 no effect, 100 complete control)
Procedure, shortened: as §1

foxtail, giant [20] = test: Test A postemergence; assay type: in vivo, Setaria faberi; conditions: postemergence, 10 days; for Foxtail, Giant plant response rating: 125 g ai/ha, 0 to 100 scale, 0 no effect, 100 complete control; for Plant response rating, Foxtail, Giant: 500 g ai/ha, visual injury, 0 to 100 scale (0 no effect, 100 complete control)
Procedure, shortened: as §1

barnyardgrass = test: Test B flooded paddy test; assay type: in vivo, Echinochloa crus-galli; conditions: 250 g ai/ha, Flood, 13 days, 0 to 100 scale (0 no effect, 100 complete control)
Procedure, shortened: as §2

kochia [21] = test: Test A postemergence; assay type: in vivo, Bassia scoparia; conditions: postemergence, 10 days; for Kochia plant response rating: 125 g ai/ha, 0 to 100 scale, 0 no effect, 100 complete control; for Plant response rating, Kochia: 500 g ai/ha, visual injury, 0 to 100 scale (0 no effect, 100 complete control)
Procedure, shortened: as §1

soybean [22] = test: Test A preemergence; assay type: in vivo, Glycine max
Procedure, shortened: as §1

[23] = 125 g ai/ha, visual injury after 10 days, 0 to 100 scale, 0 is no effect, 100 is complete control
[24] = 500 g ai/ha, 0 to 100 scale (0 no effect, 100 complete control), 10 days
[25] = 500 g ai/ha, visual injury after 10 days, 0 to 100 scale, 0 is no effect, 100 is complete control

CCOc1ccc(-n2cnc(C(C)C)n2)cc1C(=O)N1C[C@H](C)Oc2c(Cl)cccc21 [Compound 106]
Soybean plant response rating (soybean [1]): 100 | Plant response rating, Soybean (soybean [1]): 100 | Pigweed, Palmer plant response rating (pigweed, palmer [2]): 70 | Plant response rating, Pigweed, Palmer (pigweed, palmer [2]): 90 | Plant response rating, Ducksalad (ducksalad): 10 | Plant response rating, Goosegrass (goosegrass [3]; [23]): 100 | Plant response rating, Goosegrass (goosegrass [3]; [24]): 100 | Plant response rating, Foxtail, Giant (foxtail, giant [4]; [23]): 100 | Plant response rating, Foxtail, Giant (foxtail, giant [4]; [24]): 100 | Galium plant response rating (galium): 70 | Plant response rating, Galium (galium): 100 | Goosegrass plant response rating (goosegrass [5]): 70 | Plant response rating, Goosegrass (goosegrass [5]): 90 | Plant response rating, Rice (rice): 15 | Corn plant response rating (corn [6]): 60 | Plant response rating, Corn (corn [6]): 90 | Blackgrass plant response rating (blackgrass [7]): 60 | Plant response rating, Blackgrass (blackgrass [7]): 80 | Plant response rating, Kochia (kochia [8]; [23]): 50 | Plant response rating, Kochia (kochia [8]; [24]): 100 | Plant response rating, Sedge, Umbrella (sedge, umbrella): 90 | Horseweed plant response rating (horseweed): 10 | Plant response rating, Horseweed (horseweed): 80 | Plant response rating, Blackgrass (blackgrass [9]; [23]): 0 | Plant response rating, Blackgrass (blackgrass [9]; [24]): 0 | Plant response rating, Wheat (wheat [10]; [23]): 0 | Plant response rating, Wheat (wheat [10]; [24]): 40 | Plant response rating, Corn (corn [11]; [23]): 10 | Plant response rating, Corn (corn [11]; [24]): 50 | Ryegrass, Italian plant response rating (ryegrass, Italian [12]): 20 | Plant response rating, Ryegrass, Italian (ryegrass, Italian [12]): 80 | Wheat plant response rating (wheat [13]): 20 | Plant response rating, Wheat (wheat [13]): 40 | Ragweed plant response rating (ragweed [14]): 50 | Plant response rating, Ragweed (ragweed [14]): 70 | Plant response rating, Ryegrass, Italian (ryegrass, Italian [15]; [23]): 40 | Plant response rating, Ryegrass, Italian (ryegrass, Italian [15]; [24]): 100 | Plant response rating, Pigweed, Palmer (pigweed, palmer [16]; [23]): 100 | Plant response rating, Pigweed, Palmer (pigweed, palmer [16]; [24]): 100 | Plant response rating, Ragweed (ragweed [17]; [23]): 30 | Plant response rating, Ragweed (ragweed [17]; [24]): 100 | Plant response rating, Oat, Wild (oat, wild [18]; [23]): 20 | Plant response rating, Oat, Wild (oat, wild [18]; [24]): 90 | Oat, Wild plant response rating (oat, wild [19]): 30 | Plant response rating, Oat, Wild (oat, wild [19]): 60 | Foxtail, Giant plant response rating (foxtail, giant [20]): 90 | Plant response rating, Foxtail, Giant (foxtail, giant [20]): 100 | Plant response rating, Barnyardgrass (barnyardgrass): 55 | Kochia plant response rating (kochia [21]): 90 | Plant response rating, Kochia (kochia [21]): 90 | Plant response rating, Soybean (soybean [22]; [23]): 50 | Plant response rating, Soybean (soybean [22]; [24]): 100

Cc1cccc2c1O[C@@H](C)CN2C(=O)c1cccc(-n2cnn(C(C)C)c2=O)c1 [Compound 118]
Soybean plant response rating (soybean [1]): 40 | Plant response rating, Soybean (soybean [1]): 80 | Pigweed, Palmer plant response rating (pigweed, palmer [2]): 0 | Plant response rating, Pigweed, Palmer (pigweed, palmer [2]): 20 | Plant response rating, Ducksalad (ducksalad): 0 | Plant response rating, Goosegrass (goosegrass [3]; [23]): 90 | Plant response rating, Goosegrass (goosegrass [3]; [25]): 100 | Plant response rating, Foxtail, Giant (foxtail, giant [4]; [23]): 20 | Plant response rating, Foxtail, Giant (foxtail, giant [4]; [25]): 100 | Galium plant response rating (galium): 10 | Plant response rating, Galium (galium): 30 | Goosegrass plant response rating (goosegrass [5]): 20 | Plant response rating, Goosegrass (goosegrass [5]): 40 | Plant response rating, Rice (rice): 0 | Corn plant response rating (corn [6]): 0 | Plant response rating, Corn (corn [6]): 70 | Blackgrass plant response rating (blackgrass [7]): 0 | Plant response rating, Blackgrass (blackgrass [7]): 70 | Plant response rating, Kochia (kochia [8]; [23]): 0 | Plant response rating, Kochia (kochia [8]; [25]): 70 | Plant response rating, Sedge, Umbrella (sedge, umbrella): 0 | Horseweed plant response rating (horseweed): 0 | Plant response rating, Horseweed (horseweed): 0 | Plant response rating, Blackgrass (blackgrass [9]; [23]): 20 | Plant response rating, Blackgrass (blackgrass [9]; [25]): 70 | Plant response rating, Wheat (wheat [10]; [23]): 0 | Plant response rating, Wheat (wheat [10]; [25]): 30 | Plant response rating, Corn (corn [11]; [23]): 0 | Plant response rating, Corn (corn [11]; [25]): 30 | Ryegrass, Italian plant response rating (ryegrass, Italian [12]): 10 | Plant response rating, Ryegrass, Italian (ryegrass, Italian [12]): 60 | Wheat plant response rating (wheat [13]): 10 | Plant response rating, Wheat (wheat [13]): 30 | Ragweed plant response rating (ragweed [14]): 0 | Plant response rating, Ragweed (ragweed [14]): 30 | Plant response rating, Ryegrass, Italian (ryegrass, Italian [15]; [23]): 70 | Plant response rating, Ryegrass, Italian (ryegrass, Italian [15]; [25]): 100 | Plant response rating, Pigweed, Palmer (pigweed, palmer [16]; [23]): 40 | Plant response rating, Pigweed, Palmer (pigweed, palmer [16]; [25]): 100 | Plant response rating, Ragweed (ragweed [17]; [23]): 0 | Plant response rating, Ragweed (ragweed [17]; [25]): 30 | Plant response rating, Oat, Wild (oat, wild [18]; [23]): 30 | Plant response rating, Oat, Wild (oat, wild [18]; [25]): 90 | Oat, Wild plant response rating (oat, wild [19]): 10 | Plant response rating, Oat, Wild (oat, wild [19]): 90 | Foxtail, Giant plant response rating (foxtail, giant [20]): 10 | Plant response rating, Foxtail, Giant (foxtail, giant [20]): 50 | Plant response rating, Barnyardgrass (barnyardgrass): 0 | Kochia plant response rating (kochia [21]): 30 | Plant response rating, Kochia (kochia [21]): 80 | Plant response rating, Soybean (soybean [22]; [23]): 40 | Plant response rating, Soybean (soybean [22]; [25]): 60
